Test results taken from US11390589B2, “Herbicidally active substituted phenylpyrimidines” (Bayer Aktiengesellschaft, priority 2018, dated 2022).

Key:
Assay type in all cases: in vivo
[1] = test system: Stellaria media; experiment: Method E: herbicidal early post-emergence action; conditions: cotyledon stage, 96-well microtiter plates, scored visually after 9 to 12 days
Method: (§1) Method E: Herbicidal Early Post-Emergence Action Seeds of monocotyledonous or dicotyledonous weed plants are placed in 96-well microtiter plates in quartz sand and grown in a climatized chamber under controlled growth conditions. 5 to 7 days after sowing, the test plants are treated at the cotyledon stage. The compounds of the invention, formulated in the form of emulsion concentrates (EC), are applied with a water application rate of the equivalent of 2200 liters per hectare. After the test plants had been left to stand in the climatized chamber for 9 to 12 days under optimum growth conditions, the effect of the preparations is scored visually in comparison to untreated controls. For example, 100% activity=the plants have died, 0% activity=like control plants.

[2] = test system: Lolium perenne; experiment: Method E: herbicidal early post-emergence action; conditions: cotyledon stage, 96-well microtiter plates, scored visually after 9 to 12 days
Method: as §1

[3] = test system: Poa annua; experiment: Method E: herbicidal early post-emergence action; conditions: cotyledon stage, 96-well microtiter plates, scored visually after 9 to 12 days
Method: as §1

[4] = test system: Matricaria chamonilla; experiment: Method E: herbicidal early post-emergence action; conditions: cotyledon stage, 96-well microtiter plates, scored visually after 9 to 12 days
Method: as §1

[5] = test system: Agrostis tenuis; experiment: Method E: herbicidal early post-emergence action; conditions: cotyledon stage, 96-well microtiter plates, scored visually after 9 to 12 days
Method: as §1

[6] = test system: harmful plants; experiment: Method E: herbicidal early post-emergence action, summary in text; conditions: applied in early post-emergence, table E (1900 g/ha)
Method: as §1

[7] = test system: harmful plants; experiment: Method B: pre-emergence herbicidal action, summary in text; conditions: applied pre-emergence, table B (320 g/ha)
From the text: (§2) Method B: Pre-Emergence Herbicidal Action and Crop Plant Compatibility
(§3) Seeds of monocotyledonous and dicotyledonous weed plants and crop plants are placed in plastic or organic planting pots and covered with soil. The compounds of the invention, formulated in the form of wettable powders (WP) or as emulsion concentrates (EC), are then applied onto the surface of the covering soil as aqueous suspension or emulsion with addition of 0.5% additive at a water application rate of […] (converted). After the treatment, the pots are placed in a greenhouse and kept under good growth conditions for the trial plants. After about 3 weeks, the effect of the preparations is scored visually in comparison with untreated controls as percentages. For example, 100% activity=the plants have died, 0% activity=like control plants.

[8] = test system: harmful plants; experiment: Method A: post-emergence herbicidal action, summary in text; conditions: applied post-emergence, table A (320 g/ha)
Method: (§4) Method A: Post-Emergence Herbicidal Action and Crop Plant Compatibility
(§5) Seeds of monocotyledonous and dicotyledonous weeds and crop plants are placed in sandy loam in plastic or organic planting pots, covered with soil and cultivated in a greenhouse under controlled growth conditions. 2 to 3 weeks after sowing, the test plants are treated at the one-leaf stage. The compounds of the invention, formulated in the form of wettable powders (WP) or as emulsion concentrates (EC), are then sprayed onto the green parts of the plants as aqueous suspension or emulsion with addition of 0.5% additive at a water application rate of […] (converted). After the test plants have been kept in the greenhouse under optimum growth conditions for about 3 weeks, the activity of the preparations is rated visually in comparison to untreated controls. For example, 100% activity=the plants have died, 0% activity=like control plants.

[9] = test system: Stellaria media; experiment: Method A: post-emergence herbicidal action; conditions: rated visually after about 3 weeks
Method: as §4, §5

[10] = test system: Hordeum murinum; experiment: Method A: post-emergence herbicidal action; conditions: rated visually after about 3 weeks
Method: as §4, §5

[11] = test system: Lolium rigidum; experiment: Method A: post-emergence herbicidal action; conditions: rated visually after about 3 weeks
Method: as §4, §5

[12] = test system: Avena fatua; experiment: Method A: post-emergence herbicidal action; conditions: rated visually after about 3 weeks
Method: as §4, §5

[13] = test system: Polygonum convolvulus; experiment: Method A: post-emergence herbicidal action; conditions: rated visually after about 3 weeks
Method: as §4, §5

[14] = test system: Echinochloa crus-galli; experiment: Method A: post-emergence herbicidal action; conditions: rated visually after about 3 weeks
Method: as §4, §5

[15] = test system: Alopecurus myosuroides; experiment: Method A: post-emergence herbicidal action; conditions: rated visually after about 3 weeks
Method: as §4, §5

[16] = test system: Stellaria media; experiment: Method B: pre-emergence herbicidal action; conditions: scored visually after about 3 weeks
From the text: as §2, §3

[17] = test system: Hordeum murinum; experiment: Method B: pre-emergence herbicidal action; conditions: scored visually after about 3 weeks
From the text: as §2, §3

[18] = test system: Abufilon theophrast; experiment: Method B: pre-emergence herbicidal action; conditions: scored visually after about 3 weeks
From the text: as §2, §3

[19] = test system: Lolium rigidum; experiment: Method B: pre-emergence herbicidal action; conditions: scored visually after about 3 weeks
From the text: as §2, §3

[20] = test system: Digitaria sanguinalis; experiment: Method B: pre-emergence herbicidal action; conditions: scored visually after about 3 weeks
From the text: as §2, §3

[21] = test system: Avena fatua; experiment: Method B: pre-emergence herbicidal action; conditions: scored visually after about 3 weeks
From the text: as §2, §3

[22] = test system: Polygonum convolvulus; experiment: Method B: pre-emergence herbicidal action; conditions: scored visually after about 3 weeks
From the text: as §2, §3

[23] = test system: Echinochloa crus-galli; experiment: Method B: pre-emergence herbicidal action; conditions: scored visually after about 3 weeks
From the text: as §2, §3

[24] = test system: Alopecurus myosuroides; experiment: Method B: pre-emergence herbicidal action; conditions: scored visually after about 3 weeks
From the text: as §2, §3

With `O=C(Cc1nc(C2CC2)ncc1-c1c(F)cccc1Cl)C(=O)N1CCCCC1` [Example I-146, 3-[5-(2-chloro-6-fluorophenyl)-2-cyclopropylpyrimidin-4-yl]-1-(piperidin-1-yl)propane-1,2-dione] the “Early post-emergence action at 1900 g/ha STEME” value [1] was 80%, the “Early post-emergence action at 1900 g/ha LOLPE” value [2] was 80% and the “Early post-emergence action at 1900 g/ha POAAN” value [3] was 80%. For the same molecule, the “Early post-emergence action at 1900 g/ha MATCH” value [4] was 80% and the “Early post-emergence action at 1900 g/ha AGSTE” value [5] was 80%.
For `CCOC(=O)C(=O)Cc1nc(C2CC2)ncc1-c1ccccc1Cl` [II-099, ethyl 3-[5-(2-chlorophenyl)-2-cyclopropylpyrimidin-4-yl]-2-oxopropanoate], the “herbicidal efficacy against harmful plants” value (“herbicidal efficacy” below) [6] was “very good herbicidal efficacy”, the “Early post-emergence action at 1900 g/ha POAAN” value [3] was 100% and the “Early post-emergence action at 1900 g/ha MATCH” value [4] was 100%. The “Early post-emergence action at 1900 g/ha AGSTE” value [5] was 100%, the “herbicidal efficacy” value [7] was “very good herbicidal efficacy” and the “herbicidal efficacy” value [8] was “very good herbicidal efficacy”. For the same molecule, the “Post-emergence action at 320 g/ha STEME” value [9] was 100%, the “Post-emergence action at 320 g/ha HORMU” value [10] was 80% and the “Post-emergence action at 320 g/ha LOLRI” value [11] was 100%. For the same molecule, the “Post-emergence action at 320 g/ha AVEFA” value [12] was 90%, the “Post-emergence action at 320 g/ha POLCO” value [13] was 90% and the “Post-emergence action at 320 g/ha ECHCG” value [14] was 90%. For the same molecule, the “Post-emergence action at 320 g/ha ALOMY” value [15] was 90%, the “Pre-emergence action at 320 g/ha STEME” value [16] was 100% and the “Pre-emergence action at 320 g/ha HORMU” value [17] was 90%. The “Pre-emergence action at 320 g/ha ABUTH” value [18] was 80%, the “Pre-emergence action at 320 g/ha LOLRI” value [19] was 100% and the “Pre-emergence action at 320 g/ha DIGSA” value [20] was 90%. For the same molecule, the “Pre-emergence action at 320 g/ha AVEFA” value [21] was 90%, the “Pre-emergence action at 320 g/ha POLCO” value [22] was 90% and the “Pre-emergence action at 320 g/ha ECHCG” value [23] was 100%. For the same molecule, the “Pre-emergence action at 320 g/ha ALOMY” value [24] was 100%.
